Data published in patent US20120219550A1, “PHARMACEUTICAL COMBINATIONS COMPRISING A PYRIDO [4,3-D] PYRIMIDINE DERIVED HSP90-INHIBITOR AND A HER2 INHIBITOR” (NOVARTIS AG, priority 2008, published 2012).

System: BT-474 breast cancer xenograft
Assay: Antitumor effect in BT-474 human breast carcinoma xenograft model in nude mice
Format: in vivo
Settings: BT-474 xenograft, 21 days treatment, i.v.
Procedure: The estrogen receptor positive cell line BT-474 (ATCC, number HTB-20) which is a human breast carcinoma cell line is used. The cells are grown in DMEM high glucose (4.5 g/l) supplemented with 10% FCS, […] L-glutamine and 1% sodium pyruvate.
In preparation for cell inoculation, each mouse is subcutaneously implanted on the upper dorsal side with a 17β-Estradiol pellet (25 microgram/day; 90 day release) using a trocar needle. BT-474 cells (5×10̂6) are injected in 200 microliter Matrigel:HBSS (1:1 vol) (BD Matrigel™ Basement Membrane Matrix). The injection site is subcutaneously in the right flank. Treatment with compound I is initiated when the average tumor volume reached approximately 100 mm^3 Tumor growth is monitored at regular intervals. The xenograft tumor sizes is measured manually with calipers and the tumor volume is estimated using the formula: […], where width (W) and length (L) are the two largest diameters. Results are presented as mean±SEM. Tumor data are analyzed by ANOVA with post hoc Dunnet's test for comparison of treatment versus control group.
As a measure of efficacy the % T/C value is calculated at the end of the experiment according to:
(Δtumor volumetreated/Δtumor volumecontrol)*100
Where Δtumor volumes represent the mean tumor volume on the evaluation day minus the mean tumor volume at the start of the experiment.
Tumor regression is presented as the relative absolute change in tumor volume from the start to the end of the experiment (−(Tumor volumeevaluation day−Tumor volumestart day)/Tumor volumestart day*100).
The antitumor effect of compound I and trastazumab is evaluated in the BT-474 xenograft model (FIG. 1). The treatment period is 21 days and each treatment group consists of 8 tumor bearing animals. The tumor sizes in the treatment groups are compared to those of the vehicle treated groups and the effect is expressed as % T/C or regression when applicable. […] Compound I is administered i.v. once per week at a dose of 15 mg/kg.

## CCNC(=O)c1noc(-c2cc(C(C)C)c(O)cc2O)c1-c1ccc(CN2CCOCC2)cc1 [Compound I, 5-(2,4-Dihydroxy-5-isopropyl-phenyl)-4-(4-morpholin-4-ylmethyl-phenyl)-isoxazole-3-carboxylic acid ethylamide]
  antitumor effect in words (comparison with vehicle or single agents): no statistically significant difference from vehicle treated animals
Trastuzumab 5 mg/kg 2 qw, Compound I 15 mg/kg qw, end of experiment
  T/C (%): 96%
Trastuzumab 5 mg/kg twice per week, Compound I 15 mg/kg qw
  reduction of tumor burden: 4%
Mean ± SEM, Trastuzumab 5 mg/kg 2 qw, Compound I 15 mg/kg qw
  ΔTumor volume (mm^3): 929 ± 152 mm^3
